Assay results taken from patent publication US4526898A, “Antihypertensive 4-(2-imidazolin-2-yl-amino)-2-methyl-indazole” (priority 1983, dated 1985).
Like-named read-outs stand apart in the source and are kept apart here.

Key:
Mouse [1] = test: Doubling of hexobarbitone sodium sleeping time (CNS activity); assay type: in vivo; settings: po, read-out: Effective dose: Double hexobarbitone sodium sleeping time
Experimental: (§1) All tests were carried out under identical conditions according to standard testing methods. The animal species used, the route of administering the material to be tested, the type of test and the results obtained are shown in Table I hereunder.

Mouse [2] = test: Doubling of ethanol sleeping time (CNS activity); assay type: in vivo; settings: po, read-out: Effective dose: Double ethanol sleeping time
Experimental: as §1

Rat [3] = test: Doubling of chloralhydrate sleeping time (CNS activity); assay type: in vivo; settings: po, read-out: Effective dose: Double chloralhydrate sleeping time
Experimental: as §1

Mouse [4] = test: Reduction in exploratory behaviour; assay type: in vivo; settings: po, read-out: Effective dose: 50% reduction in exploratory behaviour
Experimental: as §1

Rat [5] = test: Reduction in tetrabenazine-induced ptosis; assay type: in vivo; settings: po, read-out: Effective dose: 50% reduction in tetrabenazine-induced ptosis
Experimental: as §1

Mouse [6] = test: Reduction of 5HTP-induced head twitches; assay type: in vivo; settings: sc, read-out: Effective dose: 50% reduction of 5HTP-induced head twitches
Experimental: as §1

Mouse [7] = test: Inhibition of acetic acid-induced writhing; assay type: in vivo; settings: po, read-out: Effective dose: 50% inhibition of acetic acid-induced writhing
Experimental: as §1

Mouse [8] = test: Inhibition of heat-induced tail flick; assay type: in vivo; settings: po, read-out: Effective dose: 50% inhibition of heat-induced tail flick
Experimental: as §1

conscious cats = test: Behavioural observation in conscious cats; assay type: in vivo, cat
[9] = tested on: adrenaline vasopressor effect; test: Adrenaline antagonism (adrenaline reversal) in anaesthetised cats; assay type: in vivo, cat; settings: adrenaline i.v., 5 to 10 mg/kg b.w. intraduodenally
Source text: Experimental hypertension was induced in anaesthetised cats by administering (i.v.) adrenaline.

Toxicity LD50 in mouse = settings: in vivo
Experimental: (§2) Toxicity values were determined applying identical standard methods. The data obtained are listed herebelow in Table II showing LD50 values as mg/kg body weight.

Toxicity LD50 in rat = settings: in vivo
Experimental: as §2

[10] = Antihypertensive activity in nephrogenic GOLDBLATT hypertensive rats; assay type: in vivo, rat; settings: in vivo, po; GOLDBLATT hypertensive rats, p.o.; LD50 rat p.o.; read-out: therapeutic index LD50 /ED50
Experimental: (§3) Antihypertensive activities for Sgd 101/75 of the invention and Sgd 230/75 of U.S. Pat. No. 4,036,976 were determined with nephrogenic GOLDBLATT hypertensive rats.

[11] = tested on: nephrogenic GOLDBLATT hypertensive rats; test: as above; assay type: in vivo, rat; settings: for ED50: Rattus norvegicus, po, nephrogenic GOLDBLATT hypertensive rats
Experimental: as §3

α2 -adrenoceptors = test: Adrenoceptor activity, α2; settings: summary statement
α1 -adrenoceptors = test: Adrenoceptor activity, α1; settings: summary statement
[12] = tested on: extra-cellular calcium controlled α1s -adrenoceptors; test: Adrenoceptor activity, α1s; settings: summary statement
[13] = Blood-brain barrier penetration; settings: summary statement
[14] = tested on: drug-metabolising enzymes in the liver; test: Induction of drug-metabolising enzymes in the liver; settings: summary statement
[15] = tested on: genetically fixed hypertension rats; settings: p.o., prior art background; cited from earlier work

Row | Structure (SMILES) | ED (2-fold sleeping time) (Mouse [1]) [mg/kg] | ED (2-fold sleeping time) (Mouse [2]) [mg/kg] | ED (2-fold sleeping time) (Rat [3]) [mg/kg] | ED50 (Mouse [4]) [mg/kg] | ED50 (Mouse [6]) [mg/kg] | ED50 (Mouse [7]) [mg/kg] | ED50 (Mouse [8]) [mg/kg] | LD50 (Toxicity LD50 in mouse; iv) [mg/kg] | LD50 (Toxicity LD50 in mouse; po) [mg/kg] | LD50 (Toxicity LD50 in rat; iv) [mg/kg] | LD50 (Toxicity LD50 in rat; po) [mg/kg] | selectivity ratio [10] | ED50 [11] [mg/kg] | other results
1 | Clc1cccc(Cl)c1N=C1NCCN1 [Clonidine, 2-((2,6-dichloro-phenyl)-imino)-imidazolidine, reference compound] | 0.3 | 0.02 | 0.05 | 0.12 | 0.028 | 0.07 | 5 |  |  |  |  |  |  | ED50 (Rat [5]; Rat, p.o.): 0.3 mg/kg; Behavioural changes / CNS depression (conscious cats; 1 mg/kg i.p.): signs of CNS depression
2 | Cn1cc2c(NC3=NCCN3)cccc2n1 [Sgd 101/75, 4-(2-imidazolin-2-yl-amino)-2-methyl-indazole] | > 100 | > 100 | > 100 | 72 | 28 | 4.5 | > 100 | 58 | 3900 | 69 | 3220 | 767 | 4.2 | ED50 (Rat [5]; Rattus norvegicus): 33 mg/kg; Behavioural changes / CNS depression (conscious cats; 4 and 10 mg/kg i.p.): no apparent behavioural changes; Effect on adrenaline vasopressor effect (adrenaline reversal) [9]: conversion of the vasopressor effect of adrenaline into a depressor response; anti-hypertensive activity relative to the prior art compound ([11]; relative to Sgd 230/75, taking into account LD50 values (rat, p.o.)): about 190%; Activity on α2 -adrenoceptors (α2 -adrenoceptors): complete antagonist; Activity on α1 -adrenoceptors (α1 -adrenoceptors): partial agonist; Activity on α1s -adrenoceptors [12]: complete and highly specific agonist; Penetration of the blood-brain barrier [13]: does not readily penetrate the blood-brain barrier; Induction of drug-metabolising enzymes in the liver [14]: does not induce drug-metabolising enzymes in the liver
3 | Cn1ncc2c(NC3=NCCN3)cccc21 [Sgd 230/75, 4-(2-imidazolin-2-yl-amino)-1-methyl-indazole, reference compound] |  |  |  |  |  |  |  | 22 | 600 | 90 | 1200 | 400 | 3 | therapeutic index LD50 /ED50 [15]: 800
